Data published in PMC6969910, “Repurposing Dihydropyridines for Treatment of Helicobacter pylori Infection” (Pharmaceutics, 2019).
Values after ≈ are worked out from the molar mass of the structure shown. Where two headings read alike, the source gives them in different places.

What was measured:
H. pylori ATCC 700392 = assay: MIC/MBC by broth microdilution, strain ATCC 700392; format: cell-based; details: Helicobacter pylori, ATCC700392; for MBC: ATCC 700392; for MIC: ATCC 700392, 72 h
[1] = test system: H. pylori ATCC 43504 (metronidazole-resistant); assay: MIC/MBC by broth microdilution, strain ATCC 43504 (MTZ-R); format: cell-based; details: Helicobacter pylori; for MBC: ATCC43504; for MIC: ATCC43504, 72 h
[2] = test system: H. pylori ATCC 700684 (clarithromycin resistant); assay: MIC/MBC by broth microdilution, strain ATCC 700684 (CLR-R); format: cell-based; details: Helicobacter pylori; for MBC: ATCC700684; for MIC: ATCC700684, 72 h
[3] = target: T1, H. pylori HsrA response regulator (Helicobacter pylori, UniProt O25684); format: biochemical; details: EMSA; for Inhibition of the DNA binding activity of HsrA: 6 µM HsrA, 120 ng target promoter, 0.1 to 2 mM DHP; for Inhibition of HsrA activity at 100 μM: 100 μM drug, 6 μM HsrA
T1 sequence (O25684 entry or part of it): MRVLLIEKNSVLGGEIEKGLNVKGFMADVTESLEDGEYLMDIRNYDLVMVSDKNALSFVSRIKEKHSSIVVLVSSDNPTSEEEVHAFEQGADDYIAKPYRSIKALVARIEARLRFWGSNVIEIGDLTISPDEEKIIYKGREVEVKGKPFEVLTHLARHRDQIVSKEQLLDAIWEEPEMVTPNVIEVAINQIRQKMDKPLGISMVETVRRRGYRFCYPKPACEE
Procedure: The in vitro biological activity of the H. pylori HsrA response regulator and its potential inhibition by DHP drugs were assessed by electrophoretic mobility shift assay (EMSA) as previously described. Briefly, 120 ng of target DNA (promoter region of the H. pylori porGDAB operon) was mixed with 6 µM of recombinant HsrA [17] in the presence of increasing concentrations (0.1 to 2 mM) of selected DHP drugs. Mixtures of DNA and protein in a 20 μL reaction volume containing 10 mM bis-Tris (pH 7.5), 40 mM KCl, 100 mg/L BSA, 1 mM DTT and 5% glycerol were incubated at room temperature for 20 min and then separated by 6% native polyacrylamide gel electrophoresis. A 150 bp fragment of the Anabaena sp. PCC 7120 gene pkn22 was included as non-specific competitor DNA in all assays. EMSA gels were stained with SYBR Safe® (Thermo Fisher Scientific, Bothell, WA, USA) and analyzed using the Bio-Rad Gel Doc 2000 imaging system.

[4] = target: T1, H. pylori HsrA response regulator; assay: biochemical; format: binding; details: for n (binding stoichiometry): absolute error 0.06; for ΔG: absolute error 0.2 kcal/mol; for ΔH: absolute error 0.4 kcal/mol
Procedure: Thermodynamic parameters of the molecular interaction between HsrA and its DHP-class inhibitors were analyzed by isothermal titration calorimetry (ITC) using an AutoiTC200 calorimeter (MicroCal, Malvern Instruments, Malvern, Worcestershire, UK). A solution of 20 µM of the protein in 50 mM Tris-HCl [pH 8], 150 mM NaCl, 10% glycerol, 1% DMSO was titrated with 200 µM of the corresponding ligand (DHP) dissolved in the same buffer at 25 °C. A total of 19 injections of 2 μL was added sequentially to the sample cell after 150 s spacing to ensure that the thermal power returned to the baseline before the next injection. Dissociation constants and binding enthalpies were calculated by non-linear least squares regression data analysis using the software package Origin 7.0 (OriginLab, Northampton, MA, USA).

[5] = test system: H. pylori ATCC 700684 (CLR-R); assay: Checkerboard assay with clarithromycin, strain ATCC 700684; format: cell-based, Helicobacter pylori
Procedure: (§1) Antibacterial synergies of selected DHPs in combination with first-line anti-H. pylori antibiotics were tested by the checkerboard assay. Using 96-well flat-bottom microtiter plates, we assayed the antibacterial effect of the interaction of a range of 2-fold dilutions of clarithromycin or metronidazole with a range of 2-fold dilutions of each selected DHP. Serial dilutions of both antimicrobials (antibiotic and DHP) were firstly prepared using two different sterile microtiter plates, one compound was diluted along the rows in a first plate, and the other compound was diluted along the columns of a second plate. Then, both gradients were mixed in a third microtiter plate and inoculated with a freshly prepared bacterial suspension of H. pylori at 2 × 10^6 CFU/mL in BHI+FBS. Plates were incubated for 48 h at 37 °C under microaerobic conditions. […] The interaction between drugs was determined by calculating the fractional inhibitory concentration index (FICI) as: FICA (MICA in the presence of B/MICA alone) + FICB (MICB in the presence of A/MICB alone).

Mouse [6] = details: cited from earlier work
[7] = test system: H. pylori strain ATCC 700684; assay: Time-kill kinetics assay; format: cell-based, Helicobacter pylori; details: 2 × MIC
Procedure: Time–kill curves for selected DHP drugs were determined using the H. pylori strain ATCC 700684 [17]. […] DMSO instead of drugs was included as control. Colony forming units (CFUs) were determined after 4, 8, and 24 h of drug exposition by culturing on Blood Agar Base No.2 supplemented with 8% defibrinated horse blood for 72 h under microaerobic conditions. Each determination was performed twice in triplicate and the results were presented as log10 CFU/mL versus incubation time. Statistical analysis was performed using the Mann–Whitney U test. A p value smaller than 0.05 was considered significant.

[8] = test system: H. pylori essential response regulator HsrA; design: method as in PMID 31383920; details: binds native state of HsrA; cited from earlier work
Mouse [9] = assay: Mouse oral median lethal dose (LD50); format: in vivo; details: oral dose 100 mg/kg/day versus mouse oral LD50
[10] = test system: H. pylori ATCC 43504 (MTZ-R); assay: Checkerboard assay with metronidazole, strain ATCC 43504; format: cell-based, Helicobacter pylori
Procedure: as §1

H. pylori strain PMSS1 = assay: H. pylori gastric colonization in C57BL/6 mice (bacterial counts and qPCR); format: in vivo, Helicobacter pylori (in C57BL/6 mice); details: PMSS1, oral 100 mg/kg/day marketed formulation + omeprazole 140 mg/kg/day, 7 days, vs infected non-treated
[11] = target: T1, H. pylori HsrA response regulator; design: method as in PMID 31383920; details: previous work; cited from earlier work
[12] = test system: different strains of H. pylori; design: method as in PMID 31383920; details: including metronidazole- and clarithromycin-resistant strains; cited from earlier work
[13] = ITC, 25 °C, pH 8, relative error 40%, read-out: Kd

| SMILES | MBC (H. pylori ATCC 700392) [µg/mL] | MIC (H. pylori ATCC 700392) [µg/mL] | MBC [1] [µg/mL] | MIC [1] [µg/mL] | MBC [2] [µg/mL] | MIC [2] [µg/mL] | Inhibition of the DNA binding activity of HsrA [3] | n (binding stoichiometry) ([4]; ITC, 25 °C, pH 8) | ΔG ([4]; ITC, 25 °C, pH 8) [kcal/mol] | ΔH ([4]; ITC, 25 °C, pH 8) [kcal/mol] | Mouse LD50 (mg/kg, oral) (Mouse [6]; ref PubChem) [mg/kg] | Inhibition of the biological activity of HsrA [11] | Bactericidal activity against different strains of H. pylori [12] | also measured |
| --- | --- | --- | --- | --- | --- | --- | --- | --- | --- | --- | --- | --- | --- | --- |
| CC[C@H]1OC(=O)[C@H](C)[C@@H](O[C@H]2C[C@@](C)(OC)[C@@H](O)[C@H](C)O2)[C@H](C)[C@@H](O[C@@H]2O[C@H](C)C[C@H](N(C)C)[C@H]2O)[C@](C)(OC)C[C@@H](C)C(=O)[C@H](C)[C@@H](O)[C@]1(C)O [Clarithromycin] | ≤ 0.12 | ≤ 0.12 | ≤ 0.12 | ≤ 0.12 | 32 (≈ 42.8 µM) | 16 (≈ 21.4 µM) |  |  |  |  |  |  |  |  |
| COC(=O)C1=C(C)NC(C)=C(C(=O)OC(C)(C)CN(C)CCC(c2ccccc2)c2ccccc2)C1c1cccc([N+](=O)[O-])c1 (centres unmarked) [Lercanidipine] | 8 (≈ 13.1 µM) | 8 (≈ 13.1 µM) | 64 (≈ 105 µM) | 32 (≈ 52.3 µM) | 8 (≈ 13.1 µM) | 8 (≈ 13.1 µM) | noticeably inhibited | 0.81 | -6.4 | -4.8 |  |  |  | Kd [4, 13]: 20 µM; FICantibiotic ([5]; clarithromycin in combination with DHP, ATCC 700684 (CLR-R)): 0.0625; Reduction of the MIC value of clarithromycin ([5]; in combination with DHP, ATCC 700684): up to 16 times; Mouse LD50 (mg/kg, oral) (Mouse [6]): 622 mg/kg |
| Cc1ncc([N+](=O)[O-])n1CCO [Metronidazole] | 2 (≈ 11.7 µM) | 1 (≈ 5.84 µM) | 128 (≈ 748 µM) | 64 (≈ 374 µM) | 2 (≈ 11.7 µM) | 1 (≈ 5.84 µM) |  |  |  |  |  |  |  |  |
| COC(=O)C1=C(C)NC(C)=C(C(=O)OCCN(C)Cc2ccccc2)C1c1cccc([N+](=O)[O-])c1 (centres unmarked) [Nicardipine] | 8 (≈ 16.7 µM) | 8 (≈ 16.7 µM) | 8 (≈ 16.7 µM) | 8 (≈ 16.7 µM) | 8 (≈ 16.7 µM) | 8 (≈ 16.7 µM) | noticeably inhibited | 0.72 | -7.5 | -2.0 | 305 |  |  | Inhibition of HsrA activity at 100 μM [3]: partially inhibited; Kd [4, 13]: 3 µM; Decline in bacterial counts (time-kill kinetics) compared to other DHPs [7]: significantly faster; Killing effect after 4 h of exposition [7]: completely lethal; Effect on HsrA conformational stability (thermal shift) [8]: increased the protein conformational stability |
| COC(=O)C1=C(C)NC(C)=C(C(=O)OC)C1c1ccccc1[N+](=O)[O-] [Nifedipine] | 8 (≈ 23.1 µM) | 8 (≈ 23.1 µM) | 16 (≈ 46.2 µM) | 16 (≈ 46.2 µM) | 8 (≈ 23.1 µM) | 8 (≈ 23.1 µM) |  |  |  |  |  |  |  | Decline in bacterial counts (time-kill kinetics) compared to other DHPs [7]: significantly slower |
| COCCOC(=O)C1=C(C)NC(C)=C(C(=O)OC(C)C)C1c1cccc([N+](=O)[O-])c1 (centres unmarked) [Nimodipine] | 8 (≈ 19.1 µM) | 8 (≈ 19.1 µM) | 32 (≈ 76.5 µM) | 16 (≈ 38.2 µM) | 4 (≈ 9.56 µM) | 4 (≈ 9.56 µM) | noticeably inhibited | 0.71 | -7.3 | -2.1 | 940 |  |  | Treatment dose, times lower than LD50 (Mouse [9]): 9.4 times; Kd [4, 13]: 4.1 µM; Reduction of the MIC value of metronidazole ([10]; in combination with DHP, ATCC 43504): up to 8 times; FICantibiotic ([10]; metronidazole in combination with DHP, ATCC 43504 (MTZ-R)): 0.125; H. pylori gastric colonization, bacterial counts (CFU/mg of stomach) (H. pylori strain PMSS1): significantly reduced; H. pylori gastric colonization, qPCR (bacteria per 10,000 murine cells) (H. pylori strain PMSS1): significantly reduced |
| COC(=O)C1=C(C)NC(C)=C(C(=O)OCC(C)C)C1c1ccccc1[N+](=O)[O-] (centres unmarked) [Nisoldipine] | 4 (≈ 10.3 µM) | 4 (≈ 10.3 µM) | 16 (≈ 41.2 µM) | 16 (≈ 41.2 µM) | 4 (≈ 10.3 µM) | 4 (≈ 10.3 µM) | noticeably inhibited | 0.70 | -6.8 | -2.2 | 411 |  |  | Inhibition of HsrA activity at 100 μM [3]: partially inhibited; Kd [4]: 11 µM; Decline in bacterial counts (time-kill kinetics) compared to other DHPs [7]: significantly faster; Killing effect after 4 h of exposition [7]: completely lethal |
| CCOC(=O)C1=C(C)NC(C)=C(C(=O)OC)C1c1cccc([N+](=O)[O-])c1 (centres unmarked) [Nitrendipine] | 8 (≈ 22.2 µM) | 8 (≈ 22.2 µM) | 16 (≈ 44.4 µM) | 16 (≈ 44.4 µM) | 8 (≈ 22.2 µM) | 8 (≈ 22.2 µM) | noticeably inhibited | 0.75 | -6.9 | -2.6 | 2540 |  |  | Treatment dose, times lower than LD50 (Mouse [9]): 25.4 times; Kd [4]: 9 µM; H. pylori gastric colonization, bacterial counts (CFU/mg of stomach) (H. pylori strain PMSS1): significantly reduced; H. pylori gastric colonization, qPCR (bacteria per 10,000 murine cells) (H. pylori strain PMSS1): significantly reduced |
| O=c1cc(-c2ccc(O)cc2)oc2cc(O)cc(O)c12 [apigenin] |  |  |  |  |  |  |  |  |  |  |  | noticeably inhibited | strong bactericidal activities |  |
| O=c1cc(-c2ccccc2)oc2cc(O)cc(O)c12 [chrysin] |  |  |  |  |  |  |  |  |  |  |  | noticeably inhibited | strong bactericidal activities |  |
| COc1ccc([C@@H]2CC(=O)c3c(O)cc(O)cc3O2)cc1O [hesperetin] |  |  |  |  |  |  |  |  |  |  |  | noticeably inhibited | strong bactericidal activities |  |
| O=c1c(O)c(-c2ccc(O)cc2)oc2cc(O)cc(O)c12 [kaempferol] |  |  |  |  |  |  |  |  |  |  |  | noticeably inhibited | strong bactericidal activities |  |
